Results taken from publication PMC11900317, “KinasePred: A Computational Tool for Small-Molecule Kinase Target Prediction” (International Journal of Molecular Sciences, 2025).
Like-named read-outs stand apart in the source and are kept apart here. Each block holds one molecule with its values, some of them ahead of it.

How the values were obtained:
Assay in all cases: Z'-LYTE fluorescence kinase assay, single point
Assay type in all cases: biochemical
[1] = molecular target: T1, ROCK2 (Homo sapiens, UniProt O75116); conditions: read-out: VS2
T1 construct: commercial kinase panel (Z'-LYTE, Thermo Fisher)
Description: Z'-LYTE fluorescence kinase assay, single point on ROCK2

[2] = molecular target: T2, LRKK2 (Homo sapiens, UniProt Q5S007)
T2 construct: gene LRRK2; commercial kinase panel (Z'-LYTE, Thermo Fisher)
T2 sequence (Q5S007 whole entry): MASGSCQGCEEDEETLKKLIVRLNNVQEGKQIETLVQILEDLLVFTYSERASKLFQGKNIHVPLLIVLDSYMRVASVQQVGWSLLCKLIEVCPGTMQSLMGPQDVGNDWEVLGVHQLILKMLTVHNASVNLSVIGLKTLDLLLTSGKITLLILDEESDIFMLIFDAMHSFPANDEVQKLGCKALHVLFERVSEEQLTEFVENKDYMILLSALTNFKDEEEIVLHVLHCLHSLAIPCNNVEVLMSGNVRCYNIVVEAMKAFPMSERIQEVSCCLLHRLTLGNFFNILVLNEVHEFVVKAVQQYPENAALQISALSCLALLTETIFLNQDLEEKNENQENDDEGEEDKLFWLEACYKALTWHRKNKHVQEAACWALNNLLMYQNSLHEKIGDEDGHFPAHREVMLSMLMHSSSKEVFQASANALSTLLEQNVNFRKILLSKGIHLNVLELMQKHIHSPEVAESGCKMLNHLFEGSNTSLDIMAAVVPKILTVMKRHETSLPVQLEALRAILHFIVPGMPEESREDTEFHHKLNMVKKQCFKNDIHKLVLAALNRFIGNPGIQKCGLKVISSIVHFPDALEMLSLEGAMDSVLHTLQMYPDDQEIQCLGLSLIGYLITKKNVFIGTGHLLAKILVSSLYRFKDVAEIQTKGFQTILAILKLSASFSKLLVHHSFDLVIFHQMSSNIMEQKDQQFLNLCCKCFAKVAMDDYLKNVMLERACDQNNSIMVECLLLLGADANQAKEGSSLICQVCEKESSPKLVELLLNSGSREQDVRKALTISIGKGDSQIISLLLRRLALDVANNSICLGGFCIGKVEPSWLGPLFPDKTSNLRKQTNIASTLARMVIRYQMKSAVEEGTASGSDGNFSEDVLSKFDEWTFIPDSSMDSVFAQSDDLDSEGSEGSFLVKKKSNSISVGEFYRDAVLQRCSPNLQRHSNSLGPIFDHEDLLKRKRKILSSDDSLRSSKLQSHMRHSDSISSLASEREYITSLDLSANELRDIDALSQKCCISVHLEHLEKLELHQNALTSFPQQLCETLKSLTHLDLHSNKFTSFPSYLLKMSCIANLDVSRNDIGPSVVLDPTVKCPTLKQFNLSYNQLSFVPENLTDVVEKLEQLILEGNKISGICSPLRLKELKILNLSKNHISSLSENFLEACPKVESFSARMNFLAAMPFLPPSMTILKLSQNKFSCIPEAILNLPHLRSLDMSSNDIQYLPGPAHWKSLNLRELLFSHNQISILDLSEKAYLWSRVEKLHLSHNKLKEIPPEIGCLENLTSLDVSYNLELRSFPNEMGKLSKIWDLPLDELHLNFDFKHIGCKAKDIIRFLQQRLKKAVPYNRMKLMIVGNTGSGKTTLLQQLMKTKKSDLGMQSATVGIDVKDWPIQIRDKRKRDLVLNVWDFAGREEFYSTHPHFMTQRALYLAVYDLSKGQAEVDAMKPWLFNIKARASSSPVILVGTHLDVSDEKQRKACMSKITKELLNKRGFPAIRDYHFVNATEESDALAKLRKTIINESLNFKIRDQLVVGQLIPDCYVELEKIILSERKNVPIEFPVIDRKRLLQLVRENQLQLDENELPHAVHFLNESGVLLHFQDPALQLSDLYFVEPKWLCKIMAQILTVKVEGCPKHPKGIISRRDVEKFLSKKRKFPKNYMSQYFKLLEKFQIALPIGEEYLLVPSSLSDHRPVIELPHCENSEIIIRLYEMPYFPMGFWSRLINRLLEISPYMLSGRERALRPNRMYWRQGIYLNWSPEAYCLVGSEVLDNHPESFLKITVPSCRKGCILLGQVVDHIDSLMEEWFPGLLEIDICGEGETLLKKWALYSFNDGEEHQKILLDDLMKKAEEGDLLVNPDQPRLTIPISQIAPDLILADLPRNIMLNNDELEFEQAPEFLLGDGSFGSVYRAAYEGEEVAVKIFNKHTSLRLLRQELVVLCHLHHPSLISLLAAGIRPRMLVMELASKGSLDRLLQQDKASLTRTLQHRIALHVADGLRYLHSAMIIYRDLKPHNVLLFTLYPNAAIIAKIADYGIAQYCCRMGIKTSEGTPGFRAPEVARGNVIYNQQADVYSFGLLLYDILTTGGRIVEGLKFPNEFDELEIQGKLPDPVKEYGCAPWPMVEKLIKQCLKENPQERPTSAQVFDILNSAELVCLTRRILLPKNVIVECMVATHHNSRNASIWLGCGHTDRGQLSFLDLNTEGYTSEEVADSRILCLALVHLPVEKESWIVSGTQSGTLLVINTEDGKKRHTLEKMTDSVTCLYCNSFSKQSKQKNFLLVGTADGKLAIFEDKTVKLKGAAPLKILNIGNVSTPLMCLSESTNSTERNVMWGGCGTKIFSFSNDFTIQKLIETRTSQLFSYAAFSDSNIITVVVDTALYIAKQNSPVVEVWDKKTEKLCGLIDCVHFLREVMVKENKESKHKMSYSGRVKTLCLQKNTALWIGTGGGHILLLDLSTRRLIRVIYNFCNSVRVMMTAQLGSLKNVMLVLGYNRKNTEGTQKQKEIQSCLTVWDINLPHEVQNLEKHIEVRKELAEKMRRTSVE
Description: Z'-LYTE fluorescence kinase assay, single point on LRKK2

[3] = molecular target: T3, CSF1R (Homo sapiens, UniProt P07333)
T3 construct: commercial kinase panel (Z'-LYTE, Thermo Fisher)
T3 sequence (P07333 20-972): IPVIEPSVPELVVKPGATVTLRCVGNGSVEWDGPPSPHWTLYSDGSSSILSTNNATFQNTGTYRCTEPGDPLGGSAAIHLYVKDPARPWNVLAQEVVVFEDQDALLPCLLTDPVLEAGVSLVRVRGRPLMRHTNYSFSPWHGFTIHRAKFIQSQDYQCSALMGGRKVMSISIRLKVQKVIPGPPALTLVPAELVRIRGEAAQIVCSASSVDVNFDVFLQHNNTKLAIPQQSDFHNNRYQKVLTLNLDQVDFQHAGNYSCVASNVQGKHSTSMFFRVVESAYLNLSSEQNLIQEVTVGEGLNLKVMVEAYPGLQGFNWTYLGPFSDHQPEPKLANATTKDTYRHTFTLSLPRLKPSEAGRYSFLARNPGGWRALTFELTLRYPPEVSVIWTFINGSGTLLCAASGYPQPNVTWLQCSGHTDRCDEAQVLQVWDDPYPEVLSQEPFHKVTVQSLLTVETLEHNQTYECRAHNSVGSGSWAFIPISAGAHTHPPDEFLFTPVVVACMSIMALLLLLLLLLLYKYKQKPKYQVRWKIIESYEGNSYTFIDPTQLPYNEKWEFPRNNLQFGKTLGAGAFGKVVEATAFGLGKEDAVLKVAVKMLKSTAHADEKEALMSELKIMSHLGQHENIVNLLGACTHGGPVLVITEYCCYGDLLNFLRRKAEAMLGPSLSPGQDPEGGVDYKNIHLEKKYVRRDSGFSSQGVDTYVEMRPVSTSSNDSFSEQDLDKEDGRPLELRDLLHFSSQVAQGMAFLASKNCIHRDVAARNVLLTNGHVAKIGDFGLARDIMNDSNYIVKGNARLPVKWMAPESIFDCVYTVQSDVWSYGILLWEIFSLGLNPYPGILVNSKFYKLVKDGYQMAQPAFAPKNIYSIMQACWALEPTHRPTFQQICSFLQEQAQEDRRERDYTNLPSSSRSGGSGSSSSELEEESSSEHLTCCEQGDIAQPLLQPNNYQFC
Description: Z'-LYTE fluorescence kinase assay, single point on CSF1R

[4] = molecular target: T4, SYK (Homo sapiens, UniProt P43405)
T4 construct: commercial kinase panel (Z'-LYTE, Thermo Fisher)
Description: Z'-LYTE fluorescence kinase assay, single point on SYK

[5] = molecular target: T5, MAPK8 (Homo sapiens, UniProt P45983); conditions: read-out: VS6
T5 construct: commercial kinase panel (Z'-LYTE, Thermo Fisher)
Description: Z'-LYTE fluorescence kinase assay, single point on MAPK8

[6] = molecular target: T6, IRAK4 (Homo sapiens, UniProt Q9NWZ3); conditions: read-out: VS7
T6 construct: commercial kinase panel (Z'-LYTE, Thermo Fisher)
T6 sequence (Q9NWZ3 1-460): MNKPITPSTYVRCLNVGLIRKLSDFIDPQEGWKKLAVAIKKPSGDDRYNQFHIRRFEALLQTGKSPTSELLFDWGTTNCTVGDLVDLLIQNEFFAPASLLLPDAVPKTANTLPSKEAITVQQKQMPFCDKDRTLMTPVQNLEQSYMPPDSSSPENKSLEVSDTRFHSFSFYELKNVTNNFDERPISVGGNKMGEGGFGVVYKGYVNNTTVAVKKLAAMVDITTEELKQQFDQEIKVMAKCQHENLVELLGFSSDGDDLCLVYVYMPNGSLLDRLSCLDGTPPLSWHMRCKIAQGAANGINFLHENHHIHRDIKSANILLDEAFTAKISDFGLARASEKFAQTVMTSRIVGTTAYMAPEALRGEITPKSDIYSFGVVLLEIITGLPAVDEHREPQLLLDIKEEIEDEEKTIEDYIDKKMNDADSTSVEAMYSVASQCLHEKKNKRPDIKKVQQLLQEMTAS
Description: Z'-LYTE fluorescence kinase assay, single point on IRAK4

[7] = molecular target: T7, LCK (Homo sapiens, UniProt P06239); conditions: read-out: VS7
T7 construct: commercial kinase panel (Z'-LYTE, Thermo Fisher)
T7 sequence (P06239 2-509): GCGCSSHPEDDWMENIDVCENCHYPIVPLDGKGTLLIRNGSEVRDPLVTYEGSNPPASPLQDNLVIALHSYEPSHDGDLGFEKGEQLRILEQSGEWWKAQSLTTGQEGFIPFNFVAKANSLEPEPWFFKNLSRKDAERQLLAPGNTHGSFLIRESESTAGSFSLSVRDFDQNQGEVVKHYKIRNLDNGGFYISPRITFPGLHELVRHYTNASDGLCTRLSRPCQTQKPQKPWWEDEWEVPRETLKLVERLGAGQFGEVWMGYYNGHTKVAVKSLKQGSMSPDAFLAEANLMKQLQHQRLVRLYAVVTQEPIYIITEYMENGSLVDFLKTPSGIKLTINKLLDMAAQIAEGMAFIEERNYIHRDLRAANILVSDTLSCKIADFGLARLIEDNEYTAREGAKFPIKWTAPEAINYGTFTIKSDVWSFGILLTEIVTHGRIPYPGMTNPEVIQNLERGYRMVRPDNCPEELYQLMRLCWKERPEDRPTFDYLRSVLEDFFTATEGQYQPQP
Description: Z'-LYTE fluorescence kinase assay, single point on LCK

[8] = molecular target: T8, NTRK1 (Homo sapiens, UniProt P04629); conditions: read-out: VS7
T8 construct: commercial kinase panel (Z'-LYTE, Thermo Fisher)
Description: Z'-LYTE fluorescence kinase assay, single point on NTRK1

[9] = molecular target: T9, PTK2 (Homo sapiens, UniProt Q05397); conditions: read-out: VS7
T9 construct: commercial kinase panel (Z'-LYTE, Thermo Fisher)
T9 sequence (Q05397 2-1052): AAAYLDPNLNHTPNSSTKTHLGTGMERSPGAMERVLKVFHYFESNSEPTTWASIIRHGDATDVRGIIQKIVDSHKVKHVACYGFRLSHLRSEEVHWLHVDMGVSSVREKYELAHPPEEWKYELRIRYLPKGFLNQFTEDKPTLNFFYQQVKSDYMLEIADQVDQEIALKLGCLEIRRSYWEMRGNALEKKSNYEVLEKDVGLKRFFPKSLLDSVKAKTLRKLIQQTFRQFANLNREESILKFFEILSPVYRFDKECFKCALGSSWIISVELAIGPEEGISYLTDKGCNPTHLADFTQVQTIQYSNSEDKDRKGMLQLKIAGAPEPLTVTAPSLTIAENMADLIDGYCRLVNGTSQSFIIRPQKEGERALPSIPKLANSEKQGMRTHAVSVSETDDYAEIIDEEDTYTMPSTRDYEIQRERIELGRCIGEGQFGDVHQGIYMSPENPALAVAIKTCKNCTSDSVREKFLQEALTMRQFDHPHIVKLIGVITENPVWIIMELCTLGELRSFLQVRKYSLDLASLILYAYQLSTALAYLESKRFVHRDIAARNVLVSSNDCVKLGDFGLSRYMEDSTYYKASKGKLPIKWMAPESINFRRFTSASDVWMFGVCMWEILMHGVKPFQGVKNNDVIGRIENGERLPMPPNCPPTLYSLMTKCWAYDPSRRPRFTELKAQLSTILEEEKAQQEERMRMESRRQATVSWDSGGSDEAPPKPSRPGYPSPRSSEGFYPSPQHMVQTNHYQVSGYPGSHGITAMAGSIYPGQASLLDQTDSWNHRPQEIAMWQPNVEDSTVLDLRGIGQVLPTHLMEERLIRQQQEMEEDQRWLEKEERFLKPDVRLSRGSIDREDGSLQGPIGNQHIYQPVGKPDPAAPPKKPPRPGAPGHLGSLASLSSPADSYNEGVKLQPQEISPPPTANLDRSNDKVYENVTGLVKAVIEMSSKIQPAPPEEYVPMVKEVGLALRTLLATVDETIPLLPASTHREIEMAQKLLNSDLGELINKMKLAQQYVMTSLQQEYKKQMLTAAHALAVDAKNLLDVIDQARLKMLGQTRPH
Description: Z'-LYTE fluorescence kinase assay, single point on PTK2

inhibition at 10 µM ([3]; read-out: VS5): 54%
SMILES: Cc1cc(C(=O)Nc2scc(-c3ccc(C)c(C)c3)c2C(N)=O)no1 [VS5]

inhibition at 10 µM ([4]; read-out: VS6): 57%
inhibition at 10 µM ([3]; read-out: VS6): 89%
inhibition at 10 µM ([2]; read-out: VS6): 60%
inhibition at 10 µM [5]: 63%
SMILES: c1ccc(Nc2nccc(-c3ccsc3)n2)cc1 [VS6]

inhibition at 10 µM ([4]; read-out: VS7): 90%
inhibition at 10 µM [6]: 80%
inhibition at 10 µM [7]: 53%
inhibition at 10 µM ([3]; read-out: VS6): 89%
inhibition at 10 µM ([2]; read-out: VS7): 100%
inhibition at 10 µM [8]: 90%
inhibition at 10 µM [9]: 66%
SMILES: NC(=O)c1ccc(Nc2nc(NCc3ccco3)c3ccccc3n2)cc1 [VS7]

More lines, now with the values behind:

SMILES: O=C(Nc1ccncc1)c1cccc(C(F)(F)F)c1 [VS2]
inhibition at 10 µM [1]: 74%
inhibition at 10 µM ([2]; read-out: VS2): 50%

SMILES: COc1cc(/C=C(/C#N)C(=O)c2ccccc2)ccc1O [VS3]
inhibition at 10 µM ([2]; read-out: VS3): 54%
